Reference: the CheMixHub viscosity set

Assay: xn = mol fraction of the nth substance listed

FCC(F)(F)F + OCCOCCO
viscosity [mPa·s], 101.32 kPa
Settings | x2 = 0.788 | x2 = 0.814 | x2 = 0.816 | x2 = 0.844 | x2 = 0.845 | x2 = 0.892 | x2 = 0.893
293.15 K | 12.4 | 14.3 | – | 16.7 | – | 21 | –
313.15 K | – | – | 6.78 | – | 7.29 | – | 8.26

C1COCO1 + CN(C)C=O
viscosity [mPa·s], 101 kPa
Settings | x2 = 0.1012 | x2 = 0.2021 | x2 = 0.3028 | x2 = 0.4032 | x2 = 0.5033 | x2 = 0.6032 | x2 = 0.7028 | x2 = 0.8021 | x2 = 0.9012
298.15 K | 0.567 | 0.568 | 0.578 | 0.594 | 0.614 | 0.642 | 0.676 | 0.715 | 0.759
308.15 K | 0.506 | 0.51 | 0.52 | 0.535 | 0.552 | 0.578 | 0.606 | 0.637 | 0.671
318.15 K | 0.467 | 0.477 | 0.488 | 0.5 | 0.515 | 0.534 | 0.555 | 0.576 | 0.597

O=S(Cl)Cl + C1CCCCC1
298.15 K, 101 kPa
Settings | viscosity [mPa·s]
x1 = 0.272 | 0.7201
x1 = 0.466 | 0.6634
x1 = 0.806 | 0.6183
x1 = 0.937 | 0.6156

CCCCCC(=O)[O-].[Na+] + CCCCCCCCCC(=O)O
100 kPa, x1 = 0.3
Settings | viscosity [mPa·s]
293.15 K | 285.4
298.15 K | 213.6
303.15 K | 162.3
308.15 K | 125.7
313.15 K | 98.9
318.15 K | 79
323.15 K | 63.9

C1COCO1 + CC(C)O
303.15 K, 101 kPa
Settings | viscosity [mPa·s]
x1 = 0.08269 | 1.212
x1 = 0.1686 | 0.9776
x1 = 0.258 | 0.8386
x1 = 0.351 | 0.7477
x1 = 0.4479 | 0.6645
x1 = 0.5489 | 0.6082
x1 = 0.6543 | 0.6033
x1 = 0.7644 | 0.5856
x1 = 0.8795 | 0.5637

CC(=O)c1ccccc1 + CC(=O)O
298.15 K, 101 kPa
Settings | viscosity [mPa·s]
x2 = 0.0998 | 1.741
x2 = 0.2107 | 1.754
x2 = 0.2935 | 1.742
x2 = 0.4253 | 1.703
x2 = 0.4885 | 1.668
x2 = 0.6003 | 1.598
x2 = 0.6998 | 1.524
x2 = 0.8002 | 1.42
x2 = 0.9013 | 1.293

COCOC + C1C[C@@H]2[C@H]3CC[C@H](C3)[C@@H]2C1
viscosity [mPa·s], 100 kPa
Settings | x1 = 0.1048 | x1 = 0.2024 | x1 = 0.3042 | x1 = 0.4061 | x1 = 0.5027 | x1 = 0.5936 | x1 = 0.7008 | x1 = 0.8058 | x1 = 0.9096
293.15 K | 2.257 | 1.767 | 1.398 | 1.122 | 0.901 | 0.749 | 0.616 | – | 0.428
298.15 K | 2.053 | 1.606 | 1.295 | 1.043 | 0.845 | 0.704 | 0.586 | 0.45 | 0.408
303.15 K | 1.903 | 1.483 | 1.202 | 0.964 | 0.797 | 0.664 | 0.558 | 0.433 | 0.393
308.15 K | 1.746 | 1.408 | 1.12 | 0.908 | 0.737 | 0.628 | 0.531 | 0.421 | 0.38
313.15 K | 1.615 | 1.3 | 1.047 | 0.846 | 0.716 | 0.594 | 0.507 | 0.402 | 0.368

Cc1cccc(C)n1 + CCO
298.15 K, 101 kPa
Settings | viscosity [mPa·s]
x1 = 0.0454 | 1.15
x1 = 0.09639 | 1.164
x1 = 0.2211 | 1.202
x1 = 0.3891 | 1.133
x1 = 0.6241 | 1.02
x1 = 0.8038 | 0.9686

CN(C)P(=O)(N(C)C)N(C)C + CCCCO
303.15 K, 101.3 kPa
Settings | viscosity [mPa·s]
x1 = 0.0872 | 2.283
x1 = 0.1988 | 2.312
x1 = 0.2977 | 2.351
x1 = 0.3888 | 2.404
x1 = 0.4941 | 2.487
x1 = 0.5894 | 2.567
x1 = 0.6891 | 2.655
x1 = 0.7954 | 2.745
x1 = 0.8991 | 2.834

O=C(O)[C@@H](O)[C@@H](O)C(=O)O + O
298 K, 101.3 kPa
Settings | viscosity [mPa·s]
x1 = 0.000823 | 0.9012
x1 = 0.00165 | 0.9144
x1 = 0.003567 | 0.9399
x1 = 0.005454 | 0.9656
x1 = 0.006888 | 0.99
x1 = 0.00872 | 1.018
x1 = 0.01004 | 1.034
x1 = 0.01181 | 1.066

CCCCCCCCC + CCCCCCCCCC
298.15 K, 101.33 kPa
Settings | viscosity [mPa·s]
x1 = 0.1051 | 0.8387
x1 = 0.2082 | 0.8061
x1 = 0.3045 | 0.7835
x1 = 0.4048 | 0.7761
x1 = 0.5057 | 0.7535
x1 = 0.6085 | 0.7344
x1 = 0.7065 | 0.7185
x1 = 0.806 | 0.6913
x1 = 0.897 | 0.6734

NC(=O)c1ccccc1O + O
viscosity [mPa·s], 100 kPa
Settings | x1 = 7.39e-05 | x1 = 0.000108 | x1 = 0.000143 | x1 = 0.00018 | x1 = 0.0002156 | x1 = 0.0002516
293.15 K | 1.008 | 1.011 | 1.013 | 1.015 | 1.016 | 1.017
298.15 K | 0.896 | 0.899 | 0.901 | 0.902 | 0.903 | 0.904
303.15 K | 0.803 | 0.805 | 0.807 | 0.808 | 0.81 | 0.811
308.15 K | 0.725 | 0.727 | 0.728 | 0.73 | 0.731 | 0.732
313.15 K | 0.659 | 0.661 | 0.662 | 0.663 | 0.664 | 0.665

FCC(F)(F)F + FC(F)C(F)(F)F
viscosity [mPa·s], 101 kPa
Settings | x1 = 0.25 | x1 = 0.5 | x1 = 0.746
298.15 K | 0.158 | 0.1739 | 0.1862
313.15 K | 0.1263 | 0.1395 | 0.151

ClC(Cl)C(Cl)(Cl)Cl + c1ccc(Oc2ccccc2)cc1
298.15 K, 101 kPa
Settings | viscosity [mPa·s]
x2 = 0.2642 | 2.64
x2 = 0.5109 | 2.97
x2 = 0.7611 | 3.36

C1COCO1 + O
viscosity [mPa·s], 101 kPa
Settings | 298.15 K | 303.15 K | 308.15 K | 313.15 K | 318.15 K | 323.15 K
x1 = 0.01 | 0.754 | – | 0.6051 | – | 0.5251 | –
x1 = 0.026 | 0.813 | – | 0.6561 | – | 0.5671 | –
x1 = 0.03 | – | 0.8133 | – | 0.6555 | – | 0.5673
x1 = 0.041 | 0.8741 | – | 0.7144 | – | 0.6071 | –
x1 = 0.06 | – | 0.8766 | – | 0.7152 | – | 0.6053
x1 = 0.09 | – | 0.9304 | – | 0.7618 | – | 0.6297

C1COCO1 + COCCO
298.15 K, 101 kPa
Settings | viscosity [mPa·s]
x1 = 0.1024 | 1.345
x1 = 0.2043 | 1.171
x1 = 0.3057 | 1.032
x1 = 0.4065 | 0.9197
x1 = 0.5067 | 0.8293
x1 = 0.6064 | 0.7564
x1 = 0.7056 | 0.6979
x1 = 0.8043 | 0.6517
x1 = 0.9024 | 0.6155

C[N+](C)(C)C.[Cl-] + Oc1ccccc1
viscosity [mPa·s], 101 kPa
Settings | 303.15 K | 313.15 K | 323.15 K
x1 = 0.2 | 23.35 | 16.88 | 11.9
x1 = 0.25 | 36.91 | 23.75 | 16.31
